Assay results published in patent US11149031B2, “Substituted N-(3-fluoropropyl)-pyrrolidine compounds, processes for their preparation and therapeutic uses thereof” (SANOFI, priority 2016, dated 2021).

Assays:
[1] = target: His6-ERα298-554 WT (ERα ligand-binding domain) (Homo sapiens (Human), UniProt P03372); assay: Test A: biochemical antagonist activity, LanthaScreen TR-FRET ERα coactivator assay, WT; details: protocol with 3 nM estradiol; read-out: Antagonism WT IC50
Procedure: (§1) Test A: Biochemical Antagonist Activity on Wild Type (WT) and Mutants
(§2) Estrogen Receptors Test A involves measuring the in vitro antagonist activity of the compounds of the invention on estrogen receptors.
(§3) The measurements of the antagonist activities were made using an estrogen receptor coactivator assay as described hereunder.
(§4) Antagonistic potency of compounds was evaluated using LanthaScreen® TR-FRET ERα Coactivator Assay (ThermoFisher) with modifications. […] The assay works in a homogeneous mix-and-read format. In a typical experiment, a 4 μL mixture of 0.5 nM His6-ERα298-554, 0.5 nM Tb-labeled His6 antibody, 250 nM PGC1a peptide, and 3 nM estradiol (or 10 nM estradiol) in 100 mM potassium phosphate, pH 7.4, 0.01% Tween-20, 0.02% NaN3, 5 mM DTT, was added to 40 nL test compound in DMSO and incubated overnight at room temperature. The TR-FRET 520:495 nm emission ratio was calculated and used to determine the IC50 value from a dose response curve fit to the 4-parameter logistic equation.

[2] = target: ERα in MCF7 cells (Homo sapiens (Human), UniProt P03372); assay: Test C: estrogen receptor degradation activity, ERα in cell western assay in MCF7 cells; format: cell-based; details: for DC50: 4 hours post compound addition, ERα in cell western, read-out: Degradation IC50; for % Degradation at 3 μM: 4 hours, relative to fulvestrant
Procedure: Test C: Estrogen Receptor Degradation Activity
Test C involves measuring the in vitro degradation activity of the compounds of the invention.
The measurements of the degradation activities were made using abreast cancer cell ERα in cell western assay as described hereunder.
MCF7 cells (ATCC) were seeded in 384 wells microplate (collagen coated) at concentration of >9990 cells/30 μL per well in red phenol free MEM alpha medium (invitrogen) containing 5% charcoal dextran striped FBS. The following day, 9 points serial 1:5 dilution of each compound were added to the cells in 2.5 μL at final concentrations ranging from 3-0.000018 μM or 0.1 μM for fulvestrant (using as positive control). At 4 hours post compounds addition the cells were fixed by adding 25 μL of formalin (final concentration 5% formalin containing 0.1% triton) for 10 minutes at room temperature and then washed twice with PBS. Then, 50 μL of LI-COR blocking buffer containing 0.1% Triton was added to plate for 30 minutes at room temperature. LI-COR blocking buffer was removed and cells were incubated overnight at cold room with 50 μL anti-ER rabbit monoclonal antibody (Thermo scientific MA1-39540) diluted at 1:>999 in LI-COR blocking buffer containing 0.1% tween-20. Wells which were treated with blocking but no antibody were used as background control. Wells were washed twice with PBS (0.1% tween-20) and incubated at 37° C. for 60 minutes in LI-COR (0.1% tween-20) containing goat anti-rabbit antibody Alexa 488 (1:>999) and Syto-64 a DNA dye (2 μM final concentration). Cells were then washed 3 times in PBS and scanned in ACUMEN explorer (TTP-Labtech). Integrated intensities in the green fluorescence and red fluorescence were measured to determine the levels of ERα and DNA respectively.

[3] = target: His6-ERα298-554 D538G mutant (ERα ligand-binding domain) (Homo sapiens (Human), UniProt P03372, D538G); assay: Test A: biochemical antagonist activity, LanthaScreen TR-FRET ERα coactivator assay, D538G mutant; details: protocol with 3 nM estradiol; read-out: Antagonism D538G IC50
Procedure: as §1, §2, §3, §4

[4] = target: His6-ERα298-554 Y537S mutant (ERα ligand-binding domain) (Homo sapiens (Human), UniProt P03372, Y537S); assay: Test A: biochemical antagonist activity, LanthaScreen TR-FRET ERα coactivator assay, Y537S mutant; details: protocol with 3 nM estradiol; read-out: Antagonism Y537S IC50
Procedure: as §1, §2, §3, §4

ERα in MCF7 cells, sequence (P03372 whole entry): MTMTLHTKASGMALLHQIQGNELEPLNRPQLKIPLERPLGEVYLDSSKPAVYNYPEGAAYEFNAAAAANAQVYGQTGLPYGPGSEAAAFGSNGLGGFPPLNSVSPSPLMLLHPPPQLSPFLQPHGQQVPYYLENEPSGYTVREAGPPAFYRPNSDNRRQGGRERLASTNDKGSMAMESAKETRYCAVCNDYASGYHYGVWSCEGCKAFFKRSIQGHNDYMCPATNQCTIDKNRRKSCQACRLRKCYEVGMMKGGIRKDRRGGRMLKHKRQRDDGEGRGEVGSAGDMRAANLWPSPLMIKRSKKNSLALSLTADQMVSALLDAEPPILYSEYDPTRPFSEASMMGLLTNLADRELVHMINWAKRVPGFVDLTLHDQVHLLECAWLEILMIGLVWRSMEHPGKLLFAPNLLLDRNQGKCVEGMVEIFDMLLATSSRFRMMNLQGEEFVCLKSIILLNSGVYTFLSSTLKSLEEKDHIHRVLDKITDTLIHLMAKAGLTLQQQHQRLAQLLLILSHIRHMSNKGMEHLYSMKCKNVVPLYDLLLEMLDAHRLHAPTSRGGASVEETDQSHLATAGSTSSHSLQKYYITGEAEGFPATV
His6-ERα298-554 D538G mutant (ERα ligand-binding domain), sequence (P03372 298-554 D538G): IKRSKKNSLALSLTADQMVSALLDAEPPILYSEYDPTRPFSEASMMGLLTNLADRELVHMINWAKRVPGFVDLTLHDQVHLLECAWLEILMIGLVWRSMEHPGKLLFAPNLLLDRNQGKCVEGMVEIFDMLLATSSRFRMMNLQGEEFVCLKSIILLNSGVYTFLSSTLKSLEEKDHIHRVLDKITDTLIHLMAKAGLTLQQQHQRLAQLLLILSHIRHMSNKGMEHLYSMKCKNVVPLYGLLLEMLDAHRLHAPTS
His6-ERα298-554 Y537S mutant (ERα ligand-binding domain), sequence (P03372 298-554 Y537S): as the sequence (P03372 298-554 D538G) above, with Y240S, G241D counted along it
His6-ERα298-554 WT (ERα ligand-binding domain), sequence (P03372 298-554): as the sequence (P03372 298-554 D538G) above, with G241D counted along it

Row | SMILES | IC50 [1] [µM] | DC50 [2] [µM] | % Degradation at 3 μM [2] [%] | IC50 [3] [µM] | IC50 [4] [µM]
1 | Oc1ccc2c(c1)C(c1ccc(O[C@H]3CCN(CCCF)C3)cc1)=C(C1=CCOCC1)CC2 [Example 3, 7-(3,6-dihydro-2H-pyran-4-yl)-8-[4-[(3S)-1-(3-fluoropropyl)pyrrolidin-3-yl]oxyphenyl]-5,6-dihydronaphthalen-2-ol] | 1.51 | 0.085 | 80 |  | 
2 | Cc1c(Cl)cccc1C1=C(c2ccc(O[C@H]3CCN(CCCF)C3)cc2)c2ccc(O)c(C)c2OCC1 [Example 112, 4-(3-chloro-2-methyl-phenyl)-5-[4-[(3S)-1-(3-fluoropropyl)pyrrolidin-3-yl]oxyphenyl]-9-methyl-2,3-dihydro-1-benzoxepin-8-ol] | 0.091 | 0.004 | 87 | 0.838 | 0.543
3 | Oc1ccc(C2=C(c3ccc(O[C@H]4CCN(CCCF)C4)cc3)c3ccc(O)cc3OCC2)c(F)c1 [Example 94, 4-(2-fluoro-4-hydroxy-phenyl)-5-[4-[(3S)-1-(3-fluoropropyl)pyrrolidin-3-yl]oxyphenyl]-2,3-dihydro-1-benzoxepin-8-ol] | 0.002 | 0.0002 | 87 | 0.01 | 0.006
4 | Oc1ccc2c(c1Cl)OCCC(c1ccc3c(c1)CCN3)=C2c1ccc(O[C@H]2CCN(CCCF)C2)cc1 [Example 115, 9-chloro-5-[4-[(3S)-1-(3-fluoropropyl)pyrrolidin-3-yl]oxyphenyl]-4-indolin-5-yl-2,3-dihydro-1-benzoxepin-8-ol] | 0.088 | 0.006 | 77 | 0.322 | 0.2
5 | Cc1cc2c(cc1O)OCCC(c1cccc(O)c1)=C2c1ccc(O[C@H]2CCN(CCCF)C2)cc1 [Example 136, 5-[4-[(3S)-1-(3-fluoropropyl)pyrrolidin-3-yl]oxyphenyl]-4-(3-hydroxyphenyl)-7-methyl-2,3-dihydro-1-benzoxepin-8-ol] | 0.004 | 0.001 | 79 | 0.059 | 0.044
6 | Oc1ccc2c(c1)OCCC(c1cccc3c1CCN3)=C2c1ccc(O[C@H]2CCN(CCCF)C2)cc1 [Example 117, 5-[4-[(3S)-1-(3-fluoropropyl)pyrrolidin-3-yl]oxyphenyl]-4-indolin-4-yl-2,3-dihydro-1-benzoxepin-8-ol] | 0.032 | 0.003 | 92 | 0.309 | 0.214
7 | Oc1ccc2c(c1)C(c1ccc(O[C@H]3CCN(CCCF)C3)cc1)=C(c1ccc3[nH]ccc3c1)CC2 [Example 5, 8-[4-[(3S)-1-(3-fluoropropyl)pyrrolidin-3-yl]oxyphenyl]-7-(1H-indol-5-yl)-5,6-dihydronaphthalen-2-ol] | 0.028 | 0.0005 | 81 | 0.209 | 0.072
8 | Oc1ccc2c(c1)SCC(c1ccc(F)cc1Cl)=C2c1ccc(O[C@H]2CCN(CCCF)C2)cc1 [Example 22, 3-(2-chloro-4-fluoro-phenyl)-4-[4-[(3S)-1-(3-fluoropropyl)pyrrolidin-3-yl]oxyphenyl]-2H-thiochromen-7-ol] | 0.006 | 0.001 | 95 | 0.027 | 0.009
9 | Oc1ccc2c(c1)OCCC(c1ccc3[nH]ccc3c1)=C2c1ccc(O[C@H]2CCN(CCCF)C2)cc1 [Example 93, 5-[4-[(3S)-1-(3-fluoropropyl)pyrrolidin-3-yl]oxyphenyl]-4-(1H-indol-5-yl)-2,3-dihydro-1-benzoxepin-8-ol] | 0.008 | 0.0004 | 87 | 0.059 | 0.026
10 | Oc1ccc2c(c1)OCCC(c1ccc(F)cc1Cl)=C2c1ccc(O[C@H]2CCN(CCCF)C2)cc1 [Example 92, 4-(2-chloro-4-fluoro-phenyl)-5-[4-[(3S)-1-(3-fluoropropyl)pyrrolidin-3-yl]oxyphenyl]-2,3-dihydro-1-benzoxepin-8-ol] | 0.007 | 0.0005 | 96 | 0.059 | 0.022
11 | Cc1c(Cl)cccc1C1=C(c2ccc(O[C@H]3CCN(CCCF)C3)cc2)c2ccc(O)cc2SCC1 [Example 163, 4-(3-chloro-2-methyl-phenyl)-5-[4-[(3S)-1-(3-fluoropropyl)pyrrolidin-3-yl]oxyphenyl]-2,3-dihydro-1-benzothiepin-8-ol] | 0.005 | 0.0006 | 94 | 0.024 | 0.019
12 | Cc1cc(F)ccc1C1=C(c2ccc(O[C@H]3CCN(CCCF)C3)cc2)c2cc(O)ccc2SCC1 [Example 180, 4-(4-fluoro-2-methyl-phenyl)-5-[4-[(3S)-1-(3-fluoropropyl)pyrrolidin-3-yl]oxyphenyl]-2,3-dihydro-1-benzothiepin-7-ol] | 0.007 | 0.003 | 80 | 0.036 | 0.016
13 | Oc1ccc2c(c1)SCC(c1ccc(Cl)cc1Cl)=C2c1ccc(O[C@H]2CCN(CCCF)C2)cc1 [Example 21, 3-(2,4-dichlorophenyl)-4-[4-[(3S)-1-(3-fluoropropyl)pyrrolidin-3-yl]oxyphenyl]-2H-thiochromen-7-ol] | 0.009 | 0.003 | 92 | 0.047 | 0.019
14 | Oc1ccc2c(c1)SCCC(c1ccc3[nH]ccc3c1)=C2c1ccc(O[C@H]2CCN(CCCF)C2)cc1 [Example 160, 5-[4-[(3S)-1-(3-fluoropropyl)pyrrolidin-3-yl]oxyphenyl]-4-(1H-indol-5-yl)-2,3-dihydro-1-benzothiepin-8-ol] | 0.003 | 0.0002 | 75 | 0.013 | 0.008
15 | Oc1ccc2c(c1)SCC(c1ccc3c(c1)CCN3)=C2c1ccc(O[C@H]2CCN(CCCF)C2)cc1 [Example 20, 4-[4-[(3S)-1-(3-fluoropropyl)pyrrolidin-3-yl]oxyphenyl]-3-indolin-5-yl-2H-thiochromen-7-ol] | 0.015 | 0.003 | 86 | 0.046 | 0.021
16 | Oc1ccc2c(c1)C(c1ccc(O[C@H]3CCN(CCCF)C3)cc1)=C(c1ccc(Cl)cc1Cl)CCS2 [Example 182, 4-(2,4-dichlorophenyl)-5-[4-[(3S)-1-(3-fluoropropyl)pyrrolidin-3-yl]oxyphenyl]-2,3-dihydro-1-benzothiepin-7-ol] |  | 0.005 | 79 |  | 
17 | Oc1ccc2c(c1)C(c1ccc(O[C@H]3CCN(CCCF)C3)cc1)=C(c1ccncc1F)CC2 [Example 1, 8-[4-[(3S)-1-(3-fluoropropyl)pyrrolidin-3-yl]oxyphenyl]-7-(3-fluoro-4-pyridyl)-5,6-dihydronaphthalen-2-ol] | 0.46 | 0.034 | 84 |  | 
18 | Oc1ccc2c(c1)C(c1ccc(O[C@H]3CCN(CCCF)C3)cc1)=C(c1ccc(F)cc1Cl)CC2 [Example 4, 7-(2-chloro-4-fluoro-phenyl)-8-[4-[(3S)-1-(3-fluoropropyl)pyrrolidin-3-yl]oxyphenyl]-5,6-dihydronaphthalen-2-ol] | 0.284 | 0.012 | 87 |  | 
19 | O=S1(=O)CCC(c2ccc(Cl)cc2Cl)=C(c2ccc(O[C@H]3CCN(CCCF)C3)cc2)c2ccc(O)cc21 [Example 231, 4-(2,4-dichlorophenyl)-5-[4-[(3S)-1-(3-fluoropropyl)pyrrolidin-3-yl]oxyphenyl]-1,1-dioxo-2,3-dihydro-1λ^6-benzothiepin-8-ol] |  | 0.002 | 96 |  | 
